Results from patent US20170037078A1, “2' -DIS[…] FOR TREATMENT OF THE FL[…] OF VIRUSES AND CANCER” (Cocrystal Pharma, Inc., priority 2014, published 2017).
“Also recorded” adds a separate entry of the source. Where two headings read alike, the source gives them in different places.

Experiments:
[1] = tested on: Primary human bone marrow mononuclear cells; assay: Bone Marrow Colony Forming Cell Assay (BFU-E); format: cell-based
Description: Primary human bone marrow mononuclear cells were obtained commercially from Cambrex Bioscience (Walkersville, Md.). CFU-GM assays were carried out using a bilayer soft agar in the presence of 50 units/mL human recombinant granulocyte/macrophage colony-stimulating factor, while BFU-E assays used a […] matrix containing 1 unit/mL erythropoietin (see Sommadossi J P, Carlisle R. Toxicity of 3′-azido-3′-deoxythymidine and 9-(1,3-dihydroxy-2-propoxymethyl) guanine for normal human hepatopoietic progenitor cells in vitro. Antimicrob. Agents Chemother. 1987; 31: 452-454; Sommadossi, J P, Schinazi, R F, Chu, C K, and Xie, M Y. Comparison of cytotoxicity of the (−) and (+) enantiomer of 2′,3′-dideoxy-3′-thiacytidine in normal human bone marrow progenitor cells. Biochem. Pharmacol. 1992; 44:1921-1925). Each experiment was performed in duplicate in cells from three different donors. AZT was used as a positive control. […] The 50% inhibitory concentration (IC50) was obtained by least-squares linear regression analysis of the logarithm of drug concentration versus BFU-E survival fractions. Statistical analysis was performed with Student's t test for independent non-paired samples.

Human PBM = assay: Cellular toxicity assay in human PBM cells; format: cell-based; details: Human PBM cells
Description: (§1) The toxicity of the compounds was assessed in Vero, human PBM, CEM (human lymphoblastoid), MT-2, and HepG2 cells, as described previously (see Schinazi R. F., Sommadossi J.-P., Saalmann V., Cannon D. L., Xie M.-Y., Hart G. C., Smith G. A. & Hahn E. F. Antimicrob. Agents Chemother. 1990, 34, 1061-67). Cycloheximide was included as positive cytotoxic control, and untreated cells exposed to solvent were included as negative controls. The cytotoxicity IC50 was obtained from the concentration-response curve using the median effective method described previously (see Chou T.-C. & Talalay P. Adv. Enzyme Regul. 1984, 22, 27-55; Belen'kii M. S. & Schinazi R. F. Antiviral Res. 1994, 25, 1-11).

Vero = assay: Cellular toxicity assay in Vero cells; format: cell-based
Description: as §1

[2] = tested on: CEM (human lymphoblastoid); assay: Cellular toxicity assay in CEM cells; format: cell-based
Description: as §1

HepG2 cells [3] = assay: Mitochondrial toxicity assay: mitochondrial and nuclear DNA levels in HepG2 cells; format: cell-based; details: 14-day assay
Description: This assay was used in all studies described in this application that determine the effect of compounds on mitochondrial DNA content. In this assay, low-passage-number HepG2 cells were seeded at 5,000 cells/well in collagen-coated 96-well plates. Test compounds were added to the medium to obtain final concentrations of 0 μM, 0.1 μM, 10 μM and 100 μM. […] The mitochondrial cytochrome c oxidase subunit II (COXII) gene and the β-actin or rRNA gene were amplified from 5 μl of the eluted nucleic acids using a multiplex Q-PCR protocol with suitable primers and probes for both target and reference amplifications. […] For exon 3 of the […] gene (GenBank accession number E01094) the sense, probe, and antisense primers are 5′-[…]-3′, 5′-6-[…]-3′ and 5′-[…]-3′, respectively. The primers and probes for the rRNA gene are commercially available from Applied Biosystems. […] The arithmetic formula for this approach is given by 2-ΔΔCT, where ΔΔCT is (CT for average target test sample−CT for target control)−(CT for average reference test−CT for reference control) (see Johnson M R, K Wang, J B Smith, M J Heslin, R B Diasio. Quantitation of dihydropyrimidine dehydrogenase expression by real-time reverse transcription polymerase chain reaction. Anal. Biochem. 2000; 278:175-184). A decrease in mitochondrial DNA content in cells grown in the presence of drug indicated mitochondrial toxicity.

HepG2 cells [4] = assay: Mitochondrial toxicity assay: lactic acid production in HepG2 cells; format: cell-based; details: 14-day assay
Description: To measure the effects of the compounds on lactic acid production, HepG2 cells from a stock culture were diluted and plated in 12-well culture plates at 2.5×10^4 cells per well. […] […] The culture medium was then filtered, and the lactic acid content in the medium was determined using a colorimetric lactic acid assay (Sigma-Aldrich). Since lactic acid product can be considered a marker for impaired mitochondrial function, elevated levels of lactic acid production detected in cells grown in the presence of test compounds would indicate a drug-induced cytotoxic effect. • ii) Effect of Compounds on Mitochondrial DNA Synthesis:

[5] = tested on: HCV GT 1b replicon (Huh-7 cells); assay: HCV Replicon Assay; format: cell-based
Description: (§2) Huh 7 Clone B cells containing HCV Replicon RNA were seeded in a 96-well plate at 5000 cells/well, and the compounds tested at 10 μM in triplicate immediately after seeding. Following five days incubation (37° C., 5% CO2), total cellular RNA was isolated by using versaGene RNA purification kit from Gentra. Replicon RNA and an internal control (TaqMan rRNA control reagents, Applied Biosystems) were amplified in a single step multiplex Real Time RT-PCR Assay. The antiviral effectiveness of the compounds was calculated by subtracting the threshold RT-PCR cycle of the test compound from the threshold RT-PCR cycle of the no-drug control (ΔCt HCV). A ΔCt of 3.3 equals a 1-log reduction (equal to 90% less starting material) in Replicon RNA levels. The cytotoxicity of the compounds was also calculated by using the ΔCt rRNA values. 2′-C-Me-C was used as the positive control. To determine EC90 and IC50 values^2, ΔCt: values were first converted into fraction of starting material^3 and then were used to calculate the % inhibition.

Huh-7 cells = assay: Cytotoxicity in HCV replicon assay (ΔCt rRNA); format: cell-based; details: HCV GT 1b replicon, Huh-7 cells
Description: as §2

[6] = Cellular toxicity assay in human PBM cells; format: cell-based; details: human, human PBM cells; read-out: Cytotoxicity, CC50
Description: as §1

[7] = Cellular toxicity assay in Vero cells; format: cell-based; details: African green monkey, read-out: Cytotoxicity, CC50
Description: as §1

[8] = Cellular toxicity assay in CEM cells; format: cell-based, human; details: human, CEM lymphoblastoid cells, read-out: Cytotoxicity, CC50
Description: as §1

[9] = Cytotoxicity in HCV replicon assay (ΔCt rRNA); format: cell-based; details: human, Huh-7 Clone B cells containing HCV GT 1b replicon RNA; HCV GT 1b replicon Huh-7 cells
Description: as §2

[10] = molecular target: Human DNA Polymerase Pol Beta (Homo sapiens, UniProt P06746); assay: Inhibition of Human DNA Polymerase Beta; format: biochemical
[11] = molecular target: T1, Human DNA Polymerase Pol Gamma (Homo sapiens, UniProt P54098); assay: Inhibition of Human DNA Polymerase Gamma; format: biochemical
T1 construct: made in house
T1 sequence (P54098 26-1239 limits assumed): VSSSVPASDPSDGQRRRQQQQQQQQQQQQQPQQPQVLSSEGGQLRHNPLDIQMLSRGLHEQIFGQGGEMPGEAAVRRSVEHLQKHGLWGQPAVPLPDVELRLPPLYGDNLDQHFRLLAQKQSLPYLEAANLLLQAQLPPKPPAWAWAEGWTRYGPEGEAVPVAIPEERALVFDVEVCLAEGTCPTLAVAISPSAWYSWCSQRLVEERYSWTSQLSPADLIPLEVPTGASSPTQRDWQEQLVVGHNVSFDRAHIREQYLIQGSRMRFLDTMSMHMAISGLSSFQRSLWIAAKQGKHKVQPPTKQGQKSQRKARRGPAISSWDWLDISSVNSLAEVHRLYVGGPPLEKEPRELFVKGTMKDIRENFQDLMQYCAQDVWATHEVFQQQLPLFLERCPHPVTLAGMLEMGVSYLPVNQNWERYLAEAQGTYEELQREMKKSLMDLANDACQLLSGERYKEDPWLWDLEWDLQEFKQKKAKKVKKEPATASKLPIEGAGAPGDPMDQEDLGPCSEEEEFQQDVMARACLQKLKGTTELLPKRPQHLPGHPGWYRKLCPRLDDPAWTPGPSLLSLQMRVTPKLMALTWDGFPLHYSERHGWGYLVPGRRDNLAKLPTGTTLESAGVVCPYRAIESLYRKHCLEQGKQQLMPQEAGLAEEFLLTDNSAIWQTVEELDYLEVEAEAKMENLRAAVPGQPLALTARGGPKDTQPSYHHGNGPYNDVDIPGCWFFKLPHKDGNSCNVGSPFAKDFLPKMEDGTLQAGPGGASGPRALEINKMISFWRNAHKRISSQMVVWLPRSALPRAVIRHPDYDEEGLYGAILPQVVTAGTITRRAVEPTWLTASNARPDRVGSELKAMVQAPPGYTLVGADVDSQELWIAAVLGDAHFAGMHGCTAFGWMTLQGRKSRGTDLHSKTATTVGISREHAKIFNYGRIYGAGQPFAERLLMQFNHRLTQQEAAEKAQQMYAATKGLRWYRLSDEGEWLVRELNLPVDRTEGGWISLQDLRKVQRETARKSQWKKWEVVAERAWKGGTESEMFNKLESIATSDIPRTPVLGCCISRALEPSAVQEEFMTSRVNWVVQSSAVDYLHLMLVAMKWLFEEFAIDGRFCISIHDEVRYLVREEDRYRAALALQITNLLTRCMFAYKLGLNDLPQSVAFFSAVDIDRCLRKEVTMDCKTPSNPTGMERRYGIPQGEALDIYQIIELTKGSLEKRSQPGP
T1 sequence (Q9UHN1 26-485 partner limits assumed): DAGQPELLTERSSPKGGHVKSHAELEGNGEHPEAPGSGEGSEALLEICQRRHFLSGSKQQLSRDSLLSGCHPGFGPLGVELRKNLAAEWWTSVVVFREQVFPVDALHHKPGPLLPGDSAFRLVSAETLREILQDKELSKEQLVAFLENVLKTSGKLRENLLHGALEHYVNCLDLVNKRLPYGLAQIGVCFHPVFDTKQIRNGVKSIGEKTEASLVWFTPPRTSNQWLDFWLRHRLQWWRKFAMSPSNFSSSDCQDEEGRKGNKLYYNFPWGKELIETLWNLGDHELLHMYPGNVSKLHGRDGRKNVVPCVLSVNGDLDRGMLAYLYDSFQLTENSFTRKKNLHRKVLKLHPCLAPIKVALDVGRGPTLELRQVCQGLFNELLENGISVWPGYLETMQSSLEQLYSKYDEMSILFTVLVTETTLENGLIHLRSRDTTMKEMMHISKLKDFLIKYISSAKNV

Structure (SMILES) | IC50 ([1]; Donor 2) [µM] | % inhibition at maximum concentration evaluated (Human PBM) [%] | % inhibition at maximum concentration evaluated (Vero) [%] | % inhibition at maximum concentration evaluated [2] [%] | Summary (mitochondrial toxicity) (HepG2 cells [3]) | % Inhibition MtDNA (HepG2 cells [3]; 10 μM) [%] | % Inhibition nDNA (HepG2 cells [3]; 10 μM) [%] | MtDNA Content (% of control) (HepG2 cells [3]; 10 μM) | MtDNA Content (% of control) (HepG2 cells [3]; 50 μM) | IC50 (HepG2 cells [3]; read-out: IC50, MtDNA) [µM] | IC50 (HepG2 cells [3]; read-out: IC50, nDNA) [µM] | Lactic acid Production (% of control) (HepG2 cells [4]; 10 μM) | Lactic acid Production (% of control) (HepG2 cells [4]; 50 μM) | other results
Cc1cn([C@H]2C[C@H](N=[N+]=[N-])[C@@H](CO)O2)c(=O)[nH]c1=O [AZT, reference compound] | 2.9 |  |  |  |  |  |  |  |  |  |  |  |  | IC50 ([1]; Donor 1): 0.3 µM
O=c1ccn(C2OC(CO)C(O)C2(F)Cl)c(=O)[nH]1 (centres unmarked) [Compound 10] |  | −4.1 | −30.7 | −48.1 | non-toxic; also recorded: not toxic | < 1 | 8.76 | 161 (113-230) % of control | 116 (77-175) % of control | > 50 | > 50 | 84.59 ± 7.30 % of control | 122.3 ± 5.80 % of control | CC50 (Human PBM; read-out: Cytotoxicity, CC50): > 100 µM; CC50 (Vero; read-out: Cytotoxicity, CC50): > 100 µM; CC50 ([2]; read-out: Cytotoxicity, CC50): > 100 µM; % Inhibition MtDNA (HepG2 cells [3]; 50 μM): <1/<1%; % Inhibition nDNA (HepG2 cells [3]; 50 μM): <1/<1%; EC50 [5]: > 10 µM; EC90 [5]: > 10 µM; CC50 (Huh-7 cells): > 10 µM
CC(C)OC(=O)[C@H](C)NP(=O)(OC[C@H]1O[C@@H](n2ccc(=O)[nH]c2=O)C(F)(Cl)[C@H]1O)Oc1ccccc1 (stereo partly drawn) [Compound 12, (2S)-isopropyl-2-(((4-chloro-5-(2,4-dioxo-3,4-dihydropyrimidin-1 (2H)-yl-4-fluoro-3-hydroxytetrahydrofuran-2-yl)methoxy) (phenoxy)phosphoryl)amino)propanoate] | > 100 | 36.2 | 17.4 | −4.8 | non-toxic; also recorded: not toxic |  |  | 129 (117-143) % of control | 84 (68-102) % of control |  |  | 60.20 ± 1.25 % of control | 55.49 ± 0.88 % of control | CC50 [6]: > 100 µM; CC50 [7]: > 100 µM; CC50 [8]: > 100 µM; inhibition at 10 µM (HepG2 cells [3]; Homo sapiens, 336 h, 10 μM, read-out: % Inhibition MtDNA): < 1%; inhibition at 10 µM (HepG2 cells [3]; Homo sapiens, 336 h, 10 μM, read-out: % Inhibition nDNA): < 1%; inhibition at 50 µM (HepG2 cells [3]; Homo sapiens, 336 h, 50 μM, read-out: % Inhibition MtDNA): 27%; inhibition at 50 µM (HepG2 cells [3]; Homo sapiens, 336 h, 50 μM, read-out: % Inhibition nDNA): 12.8%; IC50 (HepG2 cells [3]; Homo sapiens, 336 h, read-out: IC50, MtDNA): > 50 µM; IC50 (HepG2 cells [3]; Homo sapiens, 336 h, read-out: IC50, nDNA): > 50 µM; IC50 ([1]; Homo sapiens, Donor 1): > 100 µM; EC50 ([5]; Hepatitis C virus, GT1B): 0.1 to 1 µM; EC90 ([5]; Hepatitis C virus, GT1B): 0.1 to 1 µM; CC50 at 5 days [9]: > 10 µM
Nc1ccn([C@H]2CC[C@@H](CO)O2)c(=O)n1 [ddC, reference compound] |  |  |  |  | toxic | 95.5 | 52.6 | 9.5 (5.7-16.0) % of control |  | < 10 | ≤ 10 | 325.93 ± 27.05 % of control |  | 
Cc1cn([C@H]2CC[C@@H](COP(=O)(O)OP(=O)(O)OP(=O)(O)O)O2)c(=O)[nH]c1=O [ddTTP] |  |  |  |  |  |  |  |  |  |  |  |  |  | IC50 [10]: 18 µM; IC50 [11]: 43 µM
